Results on 16 molecules are retold here after ChEMBL document CHEMBL1806424, “The novel 3,4-dihydropyrimidin-2(1H)-one urea derivatives of N-aryl urea: synthesis, anti-inflammatory, antibacterial and antifungal activity evaluation” (2011).

Values after ≈ are worked out from the molar mass of the structure shown.

In assay [1] the test system is THP-1. Put plainly: Antiinflammatory activity in human THP1 cells assessed as inhibition of LPS-induced TNFalpha production at 10 uM treated 30 mins before LPS challenge measured after 24 hrs by ELISA. The assay is classed as functional.
For assay [2], the system named is THP-1. Put plainly: Antiinflammatory activity in human THP1 cells assessed as inhibition of LPS-induced IL6 production at 10 uM treated 30 mins before LPS challenge measured after 24 hrs by ELISA. The assay is classed as functional. On the technique in general: ELISA stands for enzyme-linked immunosorbent assay.
A further assay has as its system Staphylococcus aureus. Description: Antibacterial activity against Staphylococcus aureus. The assay is classed as functional.
A further assay concerns Bacillus subtilis. Description: Antibacterial activity against Bacillus subtilis. The assay is classed as functional.
Another assay has as its system Escherichia coli. Put plainly: Antibacterial activity against Escherichia coli. The assay is classed as functional.
Another assay deals with Salmonella typhimurium. Description: Antibacterial activity against Salmonella Typhimurium. The assay is classed as functional, Salmonella enterica subsp. enterica serovar Typhimurium. The note with it: Salmonella enterica.
In the next assay the test system is Candida albicans. Description: Antifungal activity against Candida albicans. The assay is classed as functional.
Another assay concerns Aspergillus niger. Put plainly: Antifungal activity against Aspergillus niger. The assay is classed as functional.
The subject of the next assay is Fusarium solani. Description: Antifungal activity against Fusarium solani. The assay is classed as functional.
The next assay concerns Aspergillus flavus. Put plainly: Antifungal activity against Aspergillus flavus. The assay is classed as functional.

As to `CCOC(=O)C1=C(C)NC(=S)NC1c1ccc(NC(=O)Nc2c(C)cccc2Cl)cc1` (configuration not stated), the inhibition (commonly how much of the control response was suppressed) at 10 µM in the assay with THP-1 [1] was 2%; in the assay with THP-1 [2], 11%. In addition, the MIC – broadly, the lowest concentration that inhibits growth of the organism – against Staphylococcus aureus was found to be 40 µg/mL (≈ 87.2 µM); against Bacillus subtilis, 65 µg/mL (≈ 142 µM); with Escherichia coli it was 55 µg/mL (≈ 120 µM); against Salmonella typhimurium, 80 µg/mL (≈ 174 µM); in the assay on Candida albicans, 40 µg/mL (≈ 87.2 µM); in the assay on Aspergillus niger, 55 µg/mL (≈ 120 µM). In addition, the minimum inhibitory concentration (MIC) in the assay on Fusarium solani and in the assay on Aspergillus flavus was 40 µg/mL (≈ 87.2 µM) each time.
Regarding `O=C(O)c1cn(C2CC2)c2cc(N3CCNCC3)c(F)cc2c1=O` [CIPROFLOXACIN], the MIC against Bacillus subtilis amounted to 25 µg/mL (≈ 75.4 µM); in the assay on Escherichia coli, 15 µg/mL (≈ 45.3 µM); with Salmonella typhimurium it was 25 µg/mL (≈ 75.4 µM).
Consider `CCOC(=O)C1=C(C)NC(=S)NC1c1ccc(NC(=O)Nc2ccc(OC)cc2)cc1` (configuration not stated), for which the figures for the inhibition at 10 µM in the assay with THP-1 [1] and with THP-1 [2] were 0% and 42%, respectively. For the same molecule, the MIC in the assay with Staphylococcus aureus was found to be 15 µg/mL (≈ 34.1 µM); in the assay on Bacillus subtilis it was 20 µg/mL (≈ 45.4 µM); against Escherichia coli it was 15 µg/mL (≈ 34.1 µM); in the assay on Salmonella typhimurium it was 45 µg/mL (≈ 102 µM); in the assay on Candida albicans, 10 µg/mL (≈ 22.7 µM); in the assay with Aspergillus niger, 25 µg/mL (≈ 56.8 µM). Moreover, the MIC with Fusarium solani and with Aspergillus flavus was 30 µg/mL (≈ 68.1 µM) throughout.
As for `CCOC(=O)C1=C(C)NC(=S)NC1c1ccc([N+](=O)[O-])cc1` (configuration not stated), the inhibition at 10 µM with THP-1 [1] is 0%; in the assay on THP-1 [2] it was 8%. Besides, the minimal inhibitory concentration (MIC) in the assay with Staphylococcus aureus worked out at 35 µg/mL (≈ 109 µM); against Bacillus subtilis, 45 µg/mL (≈ 140 µM); in the assay with Escherichia coli, 30 µg/mL (≈ 93.4 µM); against Salmonella typhimurium it was 50 µg/mL (≈ 156 µM); in the assay on Candida albicans, 30 µg/mL (≈ 93.4 µM); against Aspergillus niger it was 50 µg/mL (≈ 156 µM). Moreover, the minimal inhibitory concentration (MIC) in the assay on Fusarium solani and in the assay with Aspergillus flavus was 60 µg/mL (≈ 187 µM) throughout.
As for `CCOC(=O)C1=C(C)NC(=S)NC1c1ccc(NC(=O)Nc2c(C)cccc2F)cc1` (configuration not stated), the inhibition at 10 µM turned out to be 0% in the assay with THP-1 [1] and 6% in the assay on THP-1 [2]. Besides, the MIC against Staphylococcus aureus was found to be 60 µg/mL (≈ 136 µM); against Bacillus subtilis, 65 µg/mL (≈ 147 µM); against Escherichia coli, 30 µg/mL (≈ 67.8 µM); against Salmonella typhimurium, 30 µg/mL (≈ 67.8 µM); against Candida albicans, 50 µg/mL (≈ 113 µM); with Aspergillus niger, 35 µg/mL (≈ 79.1 µM). Further, the MIC against Fusarium solani and in the assay on Aspergillus flavus was 40 µg/mL (≈ 90.4 µM) in each case.
Take `CCOC(=O)C1=C(C)NC(=S)NC1c1ccc(NC(=O)Nc2c(F)cccc2Cl)cc1` (configuration not stated): the inhibition at 10 µM with THP-1 [1] worked out at 0%; in the assay with THP-1 [2], 36%. Moreover, the MIC in the assay on Staphylococcus aureus was 65 µg/mL (≈ 140 µM); against Bacillus subtilis it was 55 µg/mL (≈ 119 µM); against Escherichia coli, 85 µg/mL (≈ 184 µM); in the assay with Salmonella typhimurium, 85 µg/mL (≈ 184 µM); with Candida albicans, 40 µg/mL (≈ 86.4 µM); in the assay with Aspergillus niger, 60 µg/mL (≈ 130 µM). Besides, the figures for the MIC against Fusarium solani and against Aspergillus flavus were 80 µg/mL (≈ 173 µM) and 90 µg/mL (≈ 194 µM), respectively.
On to `CCOC(=O)C1=C(C)NC(=S)NC1c1ccc(NC(=O)Nc2cc(C(F)(F)F)ccc2Cl)cc1` (configuration not stated), for which the inhibition at 10 µM with THP-1 [1] was determined as 68%; in the assay with THP-1 [2], 92%. The minimal inhibitory concentration (MIC) against Staphylococcus aureus came to 55 µg/mL (≈ 107 µM); against Bacillus subtilis it was 85 µg/mL (≈ 166 µM); with Escherichia coli, 80 µg/mL (≈ 156 µM); against Salmonella typhimurium it was 90 µg/mL (≈ 175 µM); against Candida albicans, 60 µg/mL (≈ 117 µM); against Aspergillus niger, 80 µg/mL (≈ 156 µM). In addition, the minimal inhibitory concentration (MIC) worked out at 85 µg/mL (≈ 166 µM) with Fusarium solani and 90 µg/mL (≈ 175 µM) with Aspergillus flavus.
With `CCOC(=O)C1=C(C)NC(=S)NC1c1ccc(NC(=O)Nc2ccc(C(F)(F)F)cc2Cl)cc1` (configuration not stated), the inhibition at 10 µM in the assay with THP-1 [1] came to 16%; with THP-1 [2] it was 73%. The minimal inhibitory concentration (MIC) in the assay on Staphylococcus aureus was 35 µg/mL (≈ 68.2 µM); with Bacillus subtilis it was 35 µg/mL (≈ 68.2 µM); in the assay on Escherichia coli, 25 µg/mL (≈ 48.7 µM); in the assay on Salmonella typhimurium, 55 µg/mL (≈ 107 µM); against Candida albicans, 35 µg/mL (≈ 68.2 µM); with Aspergillus niger, 40 µg/mL (≈ 78 µM). In addition, the MIC in the assay with Fusarium solani turned out to be 60 µg/mL (≈ 117 µM); in the assay on Aspergillus flavus it was 35 µg/mL (≈ 68.2 µM).
Turning to `CCOC(=O)C1=C(C)NC(=S)NC1c1ccc(NC(=O)Nc2ccccc2Oc2ccccc2)cc1` (configuration not stated), the figures for the inhibition at 10 µM in the assay on THP-1 [1] and in the assay with THP-1 [2] were 0% and 36%, respectively. The minimal inhibitory concentration (MIC) with Staphylococcus aureus is 40 µg/mL (≈ 79.6 µM); in the assay on Bacillus subtilis, 55 µg/mL (≈ 109 µM); in the assay on Escherichia coli, 35 µg/mL (≈ 69.6 µM); against Salmonella typhimurium it was 40 µg/mL (≈ 79.6 µM); in the assay with Candida albicans, 40 µg/mL (≈ 79.6 µM); against Aspergillus niger, 60 µg/mL (≈ 119 µM). Besides, the MIC with Fusarium solani and in the assay on Aspergillus flavus was 30 µg/mL (≈ 59.7 µM) throughout.
With `CCOC(=O)C1=C(C)NC(=S)NC1c1ccc(NC(=O)Nc2ccc(C(F)(F)F)cc2)cc1` (configuration not stated), the inhibition at 10 µM worked out at 3% with THP-1 [1] and 55% with THP-1 [2]. Further, the MIC against Staphylococcus aureus is 20 µg/mL (≈ 41.8 µM); in the assay on Bacillus subtilis, 25 µg/mL (≈ 52.2 µM); against Escherichia coli, 10 µg/mL (≈ 20.9 µM); against Salmonella typhimurium it was 30 µg/mL (≈ 62.7 µM); in the assay on Candida albicans it was 15 µg/mL (≈ 31.3 µM); with Aspergillus niger it was 15 µg/mL (≈ 31.3 µM). For the same molecule, the values for the MIC in the assay on Fusarium solani and in the assay with Aspergillus flavus were 10 µg/mL (≈ 20.9 µM) and 25 µg/mL (≈ 52.2 µM), respectively.
In the case of `Clc1ccc(COC(Cn2ccnc2)c2ccc(Cl)cc2Cl)c(Cl)c1` (configuration not stated) [MICONAZOLE], the minimum inhibitory concentration (MIC) in the assay with Candida albicans came to 25 µg/mL (≈ 60.1 µM); in the assay on Aspergillus niger, 20 µg/mL (≈ 48.1 µM); in the assay with Fusarium solani it was 15 µg/mL (≈ 36 µM); in the assay with Aspergillus flavus, 20 µg/mL (≈ 48.1 µM).
`CCOC(=O)C1=C(C)NC(=S)NC1c1ccc(N)cc1` (configuration not stated): the inhibition at 10 µM in the assay with THP-1 [1] stood at 0%; in the assay with THP-1 [2] it was 3%. The MIC in the assay on Staphylococcus aureus is 40 µg/mL (≈ 137 µM); in the assay on Bacillus subtilis, 55 µg/mL (≈ 189 µM); against Escherichia coli it was 40 µg/mL (≈ 137 µM); in the assay on Salmonella typhimurium, 60 µg/mL (≈ 206 µM); with Candida albicans, 55 µg/mL (≈ 189 µM); with Aspergillus niger it was 40 µg/mL (≈ 137 µM). Besides, the MIC worked out at 45 µg/mL (≈ 154 µM) against Fusarium solani and 60 µg/mL (≈ 206 µM) against Aspergillus flavus.
`CCOC(=O)C1=C(C)NC(=S)NC1c1ccc(NC(=O)Nc2cccc(C(F)(F)F)c2)cc1` (configuration not stated): the inhibition at 10 µM is 0% in the assay with THP-1 [1] and 11% in the assay with THP-1 [2]. Further, the MIC against Staphylococcus aureus was 40 µg/mL (≈ 83.6 µM); in the assay with Bacillus subtilis it was 55 µg/mL (≈ 115 µM); in the assay with Escherichia coli, 20 µg/mL (≈ 41.8 µM); in the assay on Salmonella typhimurium it was 40 µg/mL (≈ 83.6 µM); with Candida albicans it was 25 µg/mL (≈ 52.2 µM); against Aspergillus niger, 20 µg/mL (≈ 41.8 µM). Moreover, the MIC with Fusarium solani and against Aspergillus flavus was 15 µg/mL (≈ 31.3 µM) each time.
Regarding `CCOC(=O)C1=C(C)NC(=S)NC1c1ccc(NC(=O)Nc2ccc(C(C)C)cc2)cc1` (configuration not stated), the inhibition at 10 µM was found to be 30% with THP-1 [1] and 65% with THP-1 [2]. In addition, the MIC in the assay with Staphylococcus aureus amounted to 85 µg/mL (≈ 188 µM); with Bacillus subtilis, 85 µg/mL (≈ 188 µM); in the assay with Escherichia coli, 55 µg/mL (≈ 122 µM); in the assay on Salmonella typhimurium it was 95 µg/mL (≈ 210 µM); in the assay on Candida albicans, 90 µg/mL (≈ 199 µM); against Aspergillus niger it was 90 µg/mL (≈ 199 µM). Further, the MIC in the assay on Fusarium solani came out at 80 µg/mL (≈ 177 µM); in the assay on Aspergillus flavus, 95 µg/mL (≈ 210 µM).
As for `CCOC(=O)C1=C(C)NC(=S)NC1c1ccc(NC(=O)Nc2c(F)cccc2C(F)(F)F)cc1` (configuration not stated), the inhibition at 10 µM in the assay with THP-1 [1] is 0%; in the assay on THP-1 [2], 27%. Moreover, the MIC is 55 µg/mL (≈ 111 µM) against Staphylococcus aureus; 40 µg/mL (≈ 80.6 µM) with Bacillus subtilis; 40 µg/mL (≈ 80.6 µM) against Escherichia coli; 60 µg/mL (≈ 121 µM) against Salmonella typhimurium; 55 µg/mL (≈ 111 µM) against Candida albicans; 30 µg/mL (≈ 60.4 µM) in the assay with Aspergillus niger. The MIC with Fusarium solani and in the assay with Aspergillus flavus was 60 µg/mL (≈ 121 µM) each time.
In the case of `CCOC(=O)C1=C(C)NC(=S)NC1c1ccc(NC(=O)Nc2ccccc2OC(F)(F)F)cc1` (configuration not stated), the inhibition at 10 µM amounted to 20% in the assay on THP-1 [1] and 60% with THP-1 [2]. Besides, the minimum inhibitory concentration (MIC) in the assay with Staphylococcus aureus was found to be 30 µg/mL (≈ 60.7 µM); with Bacillus subtilis, 30 µg/mL (≈ 60.7 µM); with Escherichia coli it was 25 µg/mL (≈ 50.6 µM); in the assay on Salmonella typhimurium, 20 µg/mL (≈ 40.4 µM); against Candida albicans it was 15 µg/mL (≈ 30.3 µM); in the assay on Aspergillus niger, 20 µg/mL (≈ 40.4 µM). Further, the MIC in the assay with Fusarium solani and with Aspergillus flavus was 15 µg/mL (≈ 30.3 µM) in each case.
